Target: T1, GCase (GBA) in human fibroblast cell line GM10915 harboring the L444P GBA mutation (Homo sapiens, UniProt P04062, L483P)
T1 construct: Human fibroblast cell line GM10915 harboring the L444P GBA mutation; host or cells: GM10915 human fibroblasts
T1 sequence (P04062 40-536 L483P): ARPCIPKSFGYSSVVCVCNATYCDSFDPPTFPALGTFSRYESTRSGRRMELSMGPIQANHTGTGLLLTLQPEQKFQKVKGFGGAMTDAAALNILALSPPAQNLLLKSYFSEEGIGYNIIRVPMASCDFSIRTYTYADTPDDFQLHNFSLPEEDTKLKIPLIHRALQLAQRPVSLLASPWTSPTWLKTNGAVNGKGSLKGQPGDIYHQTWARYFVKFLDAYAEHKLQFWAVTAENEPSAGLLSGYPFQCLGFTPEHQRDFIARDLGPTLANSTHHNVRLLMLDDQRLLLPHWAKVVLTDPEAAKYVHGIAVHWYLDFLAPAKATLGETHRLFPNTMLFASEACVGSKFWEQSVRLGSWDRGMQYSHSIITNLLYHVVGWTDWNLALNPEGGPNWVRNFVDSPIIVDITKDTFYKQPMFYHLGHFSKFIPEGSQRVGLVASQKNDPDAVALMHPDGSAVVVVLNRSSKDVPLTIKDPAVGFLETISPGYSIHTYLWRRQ
Assay: GCase activity assay (4-MUG substrate, normalised to crystal violet staining) in L444P GBA fibroblasts
Type: cell-based
Conditions: 5 days exposure; for GBA EC1.5: concentration giving 150% GCase activity (1.5-fold induction), 8-point dose range; for Emax / GBA Emax: maximum percent GCase activity relative to untreated cells in the dose range tested
Summary of the method: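 Patient fibroblasts GM10915 (L444P GBA) exposed to compounds for five days over an 8-point range, with fresh dosing every 2–3 days. Intact-cell GCase measured with 2.5 mM 4-MUG at pH 4.0 for 23 h at 37 °C (ex/em 365/445 nm), normalised to crystal violet, as % of PBS basal; Emax is the maximum reached.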

SMILES | GBA EC1.5 [µM] | Emax [%] | GBA Emax [%]
C[C@H](N)C(=O)N1CCCC(C2=NOCC(CN3CCCCC3)O2)C1 (stereo partly drawn) [compound 718, rac-(2S)-2-amino-1-(3-(5-(piperidin-1-ylmethyl)-5,6-dihydro-1,4,2-dioxazin-3-yl)piperidin-1-yl)propan-1-one] | 17 | 341 | 
COc1cc(OC)c(CNCCC2=NOCC(CN3CCCCC3)O2)cn1 (stereo not drawn) [compound 829] | 5 | 175 | 
c1cnn(C2(C3=NOCC(CN4CCCCC4)O3)CCNCC2)c1 (stereo not drawn) [compound 848] | 2 | 311 | 
COc1ccc(C2(C3=NOCC(CN4CCCCC4)O3)CCNCC2)nc1 (stereo not drawn) [compound 852] | 4 | 203 | 
c1cc(C2CCCNC2)ccc1C1=NOCC(CN2CCCCC2)O1 (stereo not drawn) [compound 856] | 2 | 134 | 
C1CCN(CC2CON=C(C3CC4CNCC3O4)O2)CC1 (stereo not drawn) [compound 862] | 15 | 212 | 
C1CCN(CC2CON=C(CC3CNCCO3)O2)CC1 (stereo not drawn) [compound 863] | 6 | 253 | 
CN1CCC(C2=NOCC(C)(CN3CCCCC3)O2)CC1 (stereo not drawn) [compound 870] | 6 | 217 | 
c1nc(C2CCNCC2)sc1C1=NOCC(CN2CCCCC2)O1 (stereo not drawn) [compound 874] | 5 | 194 | 
c1nc(C2CCCNC2)sc1C1=NOCC(CN2CCCCC2)O1 (stereo not drawn) [compound 875] | 5 | 165 | 
c1sc(C2CCCNC2)nc1C1=NOCC(CN2CCCCC2)O1 (stereo not drawn) [compound 876] | 4 | 180 | 
c1sc(C2CCNCC2)nc1C1=NOCC(CN2CCCCC2)O1 (stereo not drawn) [compound 878] | 3 | 231 | 
C[C@]1(C2=NOC[C@H](CN3CCCCC3)O2)CCCNC1 [compound 881] | 5 | 219 | 
C[C@@]1(C2=NOC[C@H](CN3CCCCC3)O2)CCCNC1 [compound 882] | 5 | 214 | 
C[C@@]1(C2=NOC[C@@H](CN3CCCCC3)O2)CCCNC1 [compound 883] | 7 | 201 | 
C[C@]1(C2=NOC[C@@H](CN3CCCCC3)O2)CCCNC1 [compound 884] | 6 | 207 | 
CC1(C2=NOC[C@@H](CN3CCCCC3)O2)CCNCC1 [compound 886] | 7 |  | 203
C[C@@H]1ON=C(C2(C)CCNCC2)O[C@H]1CN1CCCCC1 [compound 887] | 5 | 233 | 
C1CCN(CCC2=NOC[C@@H](CN3CCCCC3)O2)CC1 [compound 890] | 8 | 168 | 
C1CCN(CCC2=NOC[C@H](CN3CCCCC3)O2)CC1 [compound 891] | 15 | 209 | 
CC1(C2=NOC[C@@H](CN3CCCCC3)O2)CCNCC1 [compound 892] | 13 |  | 274
